This is an account of results in patent US11845760B2, “PRMT5 inhibitors” (AMGEN INC., priority 2020, dated 2023).

Where two headings read alike, the source gives them in different places.

One assay has as its system HCT116 WT cells. Kind of assay: HCT116 WT cell line proliferation (CellTiter-Glo cell viability, 6 days). It is filed as cell-based. The conditions noted are these: HCT116 WT (parent) cells, 6 days of treatment, CellTiter-Glo cell viability, read-out: HCT-116 WT IC50. As for the experimental part:
(§1) To assess selective anti-proliferative activity of compounds of the invention in cells that have loss expression of MTAP, an HCT-116 isogenic cell line pair was utilized where one cell line was engineered to genetically knockout both MTAP alleles. Cell viability was then assessed in both the parent HCT-116 cell line and the MTAP null cell line after 6 days of treatment with compounds of the present invention. Selective anti-proliferative activity in the MTAP null cell line indicates MTA-cooperative inhibition of PRMT5 and ability to inhibit growth of cancer cells that have loss of MTAP.
(§2) HCT116 MTAP null and WT cells were seeded in 96-well tissue culture plates in RPMI 1640 media+10% fetal bovine serum. Plates were incubated overnight at 37° C. and 5% CO2. Cells were then treated with an 8- or 9-point serial dilution of compound, using a top concentration of 1, or 10 μM, 1:3 serial dilution steps and, a DMSO-only control. Cells were incubated in the presence of drug for 6 days. Effects on cell viability were measured with the CellTiter-Glo® Luminescent Cell Viability Assay (Promega) per manufacturer's recommendation. Assay plates were read on an EnVision™ Multilabel Reader using the Ultra-Sensitive luminescence module. IC50 values were calculated with GraphPad Prism v 5.01 using symmetrical sigmoidal dose-response least squares fit with Hill slope fixed to −1 and top constrain to 100% or GeneData Screener using a 4-parameter logistic model to fit dose response curves.
(§3) Alternatively, compounds could be assayed with a 384 well plate format:
(§4) Compounds were pre-spotted into 384 well plates with a 22-point serial dilution of compound, using a top concentration of 10 or 50 μM, 1:2 serial dilution steps and, a DMSO-only control. HCT116 MTAP null and WT cells were then seeded as above and after 6 days effects on cell viability were measured with the CellTiter-Glo® Luminescent Cell Viability Assay (Promega). Assay plates were read as above and IC50 values were calculated with GeneData Screener using a 4-parameter logistic model to fit dose response curves. The reported IC50 represents the value where the curve transits 50% of control.
In general terms: ATP-based viability assays read luminescence as a measure of living cells.

The subject of a further assay is HCT116 MTAP null cells. Kind of assay: HCT116 MTAP null cell line proliferation (CellTiter-Glo cell viability, 6 days). It is filed as cell-based. The conditions noted are these: HCT116 MTAP null cells, 6 days of treatment, CellTiter-Glo cell viability, read-out: HCT-116 MTAP null IC50. As for the experimental part: as §1, §2, §3, §4

The term IC50 denotes the concentration needed to halve the response being measured. As for `C[C@H]1OCc2c1c(N)nc1cnc(C(=O)N3[C@@H](C)COC[C@H]3c3ccc(C(F)(F)F)nc3)cc21` (racemic) [Example 308, ((3R)-4-amino-3-methyl-1,3-dihydrofuro[3,4-c][1,7]naphthyridin-8-yl)((3R,5S)-3-methyl-5-(6-(trifluoromethyl)-3-pyridinyl)-4-morpholinyl)methanone and ((3R)-4-amino-3-methyl-1,3-dihydrofuro[3,4-c][1,7]naphthyridin-8-yl)((3S,5R)-3-methyl-5-(6-(trifluoromethyl)-3-pyridinyl)-4-morpholinyl)methanone], the IC50 was 1720 nM in the assay with HCT116 WT cells (Homo sapiens, HCT-116, 144 h) and 46 nM in the assay with HCT116 MTAP null cells (HCT116-MTAP null, 144 h).
The like results for `C[C@H]1COC[C@@H](c2ccc(C(F)(F)F)nc2)N1C(=O)c1cc2c3c(c(N)nc2cc1F)COC3` (racemic) [Example 309, (4-amino-7-fluoro-1,3-dihydrofuro[3,4-c]quinolin-8-yl)((3R,5S)-3-methyl-5-(6-(trifluoromethyl)-3-pyridinyl)-4-morpholinyl)methanone and (4-amino-7-fluoro-1,3-dihydrofuro[3,4-c]quinolin-8-yl)((3S,5R)-3-methyl-5-(6-(trifluoromethyl)-3-pyridinyl)-4-morpholinyl)methanone] were, in that order, 688 nM and 40 nM.
The like results for `C[C@H]1OCc2c1c(N)nc1cnc(C(=O)N3[C@@H](C)COC[C@H]3c3ccc(Cl)nc3)cc21` (racemic) [Example 310, ((3R)-4-amino-3-methyl-1,3-dihydrofuro[3,4-c][1,7]naphthyridin-8-yl)((3R,5S)-3-(6-chloro-3-pyridinyl)-5-methyl-4-morpholinyl)methanone and ((3R)-4-amino-3-methyl-1,3-dihydrofuro[3,4-c][1,7]naphthyridin-8-yl)((3S,5R)-3-(6-chloro-3-pyridinyl)-5-methyl-4-morpholinyl)methanone] were, in that order, 3230 nM and 66 nM.
The like results for `C[C@H]1COC[C@@H](c2ccc(Cl)nc2)N1C(=O)c1cc2c3c(c(N)nc2cn1)COC3` (racemic) [Example 311, (4-amino-1,3-dihydrofuro[3,4-c][1,7]naphthyridin-8-yl)((3R,5S)-3-(6-chloro-3-pyridinyl)-5-methyl-4-morpholinyl)methanone and (4-amino-1,3-dihydrofuro[3,4-c][1,7]naphthyridin-8-yl)((3S,5R)-3-(6-chloro-3-pyridinyl)-5-methyl-4-morpholinyl)methanone] were, in that order, 6740 nM and 148 nM.
Turning to `C[C@H]1OCc2c1c(N)nc1ccc(C(=O)N3[C@@H](C)COC[C@H]3c3ccc(Cl)nc3)cc21` (racemic) [Example 312, ((3R)-4-amino-3-methyl-1,3-dihydrofuro[3,4-c]quinolin-8-yl)((3R,5S)-3-(6-chloro-3-pyridinyl)-5-methyl-4-morpholinyl)methanone and ((3R)-4-amino-3-methyl-1,3-dihydrofuro[3,4-c]quinolin-8-yl)((3S,5R)-3-(6-chloro-3-pyridinyl)-5-methyl-4-morpholinyl)methanone], the concentration for half-maximal inhibition (IC50) in the assay with HCT116 WT cells (Homo sapiens, HCT-116, 144 h) is 3000 nM; in the assay with HCT116 MTAP null cells (HCT116-MTAP null, 144 h), 71 nM.
The like results for `C[C@H]1COC[C@@H](c2ccc(Cl)nc2)N1C(=O)c1cc2c3c(c(N)nc2cc1F)COC3` (racemic) [Example 313, (4-amino-7-fluoro-1,3-dihydrofuro[3,4-c]quinolin-8-yl)((3R,5S)-3-(6-chloro-3-pyridinyl)-5-methyl-4-morpholinyl)methanone and (4-amino-7-fluoro-1,3-dihydrofuro[3,4-c]quinolin-8-yl)((3S,5R)-3-(6-chloro-3-pyridinyl)-5-methyl-4-morpholinyl)methanone] were, in that order, 850 nM and 33 nM.
The like results for `C[C@H]1COC[C@@H](c2ccc(OC(F)F)nn2)N1C(=O)c1cc2c3c(c(N)nc2cc1F)COC3` (racemic) [Example 314, (4-amino-7-fluoro-1,3-dihydrofuro[3,4-c]quinolin-8-yl)((3R,5S)-3-(6-(difluoromethoxy)-3-pyridazinyl)-5-methyl-4-morpholinyl)methanone and (4-amino-7-fluoro-1,3-dihydrofuro[3,4-c]quinolin-8-yl)((3S,5R)-3-(6-(difluoromethoxy)-3-pyridazinyl)-5-methyl-4-morpholinyl)methanone] were, in that order, 606 nM and 15 nM.
In the case of `C[C@@H]1COC[C@H](c2ccc(OC(F)F)nn2)N1C(=O)c1ccc2nc(N)c3c(c2c1)COC3` (racemic) [Example 315, (4-amino-1,3-dihydrofuro[3,4-c]quinolin-8-yl)((3R,5S)-3-(6-(difluoromethoxy)-3-pyridazinyl)-5-methyl-4-morpholinyl)methanone and (4-amino-1,3-dihydrofuro[3,4-c]quinolin-8-yl)((3S,5R)-3-(6-(difluoromethoxy)-3-pyridazinyl)-5-methyl-4-morpholinyl)methanone], the IC50 is 4750 nM in the assay on HCT116 WT cells and 106 nM in the assay with HCT116 MTAP null cells.
Turning to `C[C@H]1COC[C@@H](c2ccc(OC(F)F)nc2)N1C(=O)c1cc2c3c(c(N)nc2cn1)COC3` (racemic) [Example 318, (4-amino-1,3-dihydrofuro[3,4-c][1,7]naphthyridin-8-yl)((3R,5S)-3-(6-(difluoromethoxy)-3-pyridinyl)-5-methyl-4-morpholinyl)methanone and (4-amino-1,3-dihydrofuro[3,4-c][1,7]naphthyridin-8-yl)((3S,5R)-3-(6-(difluoromethoxy)-3-pyridinyl)-5-methyl-4-morpholinyl)methanone], the concentration for half-maximal inhibition (IC50) in the assay on HCT116 WT cells (Homo sapiens, HCT-116, 144 h) was 2780 nM; in the assay with HCT116 MTAP null cells (HCT116-MTAP null, 144 h), 82 nM.
The like results for `CCOc1ccc([C@@H]2COC[C@H](C)N2C(=O)c2ccc3nc(N)c4c(c3c2)COC4)nn1` (racemic) [Example 319, (4-amino-1,3-dihydrofuro[3,4-c]quinolin-8-yl)((3R,5S)-3-(6-ethoxy-3-pyridazinyl)-5-methyl-4-morpholinyl)methanone and (4-amino-1,3-dihydrofuro[3,4-c]quinolin-8-yl)((3S,5R)-3-(6-ethoxy-3-pyridazinyl)-5-methyl-4-morpholinyl)methanone] were, in that order, 5580 nM and 145 nM.
The like results for `CCOc1ccc([C@@H]2COC[C@H](C)N2C(=O)c2cc3c4c(c(N)nc3cn2)COC4)nn1` (racemic) [Example 320, (4-amino-1,3-dihydrofuro[3,4-c][1,7]naphthyridin-8-yl)((3R,5S)-3-(6-ethoxy-3-pyridazinyl)-5-methyl-4-morpholinyl)methanone and (4-amino-1,3-dihydrofuro[3,4-c][1,7]naphthyridin-8-yl)((3S,5R)-3-(6-ethoxy-3-pyridazinyl)-5-methyl-4-morpholinyl)methanone] were, in that order, 3680 nM and 101 nM.
The like results for `CCOc1ccc([C@@H]2COC[C@H](C)N2C(=O)c2ccc3nc(N)c4c(c3c2)CO[C@@H]4C)nn1` (racemic) [Example 321, ((3R)-4-amino-3-methyl-1,3-dihydrofuro[3,4-c]quinolin-8-yl)((3R,5S)-3-(6-ethoxy-3-pyridazinyl)-5-methyl-4-morpholinyl)methanone and ((3R)-4-amino-3-methyl-1,3-dihydrofuro[3,4-c]quinolin-8-yl)((3S,5R)-3-(6-ethoxy-3-pyridazinyl)-5-methyl-4-morpholinyl)methanone] were, in that order, 4960 nM and 93 nM.
As to `CCOc1ccc([C@@H]2COC[C@H](C)N2C(=O)c2cc3c4c(c(N)nc3cc2Cl)COC4)nn1` (racemic) [Example 322, (4-amino-7-chloro-1,3-dihydrofuro[3,4-c]quinolin-8-yl)((3R,5S)-3-(6-ethoxy-3-pyridazinyl)-5-methyl-4-morpholinyl)methanone and (4-amino-7-chloro-1,3-dihydrofuro[3,4-c]quinolin-8-yl)((3S,5R)-3-(6-ethoxy-3-pyridazinyl)-5-methyl-4-morpholinyl)methanone], the IC50 came to 279 nM in the assay with HCT116 WT cells (Homo sapiens, HCT-116, 144 h) and 6 nM in the assay on HCT116 MTAP null cells (HCT116-MTAP null, 144 h).
The like results for `CCOc1ccc([C@@H]2COC[C@H](C)N2C(=O)c2cc3c4c(c(N)nc3cn2)[C@@H](C)OC4)nn1` (racemic) [Example 326, ((3R)-4-amino-3-methyl-1,3-dihydrofuro[3,4-c][1,7]naphthyridin-8-yl)((3R,5S)-3-(6-ethoxy-3-pyridazinyl)-5-methyl-4-morpholinyl)methanone and ((3R)-4-amino-3-methyl-1,3-dihydrofuro[3,4-c][1,7]naphthyridin-8-yl)((3S,5R)-3-(6-ethoxy-3-pyridazinyl)-5-methyl-4-morpholinyl)methanone] were, in that order, 2580 nM and 72 nM.
